What all share (assay): NCI anticancer screen, dose series, 48 h
The test system of assay [1] is SK-OV-3.
For assay [2], the system named is HL-60.
Assay [3] deals with SK-MEL-5.
The subject of assay [4] is COLO 205.
For assay [5], the system named is OVCAR-5.
Assay [6] relates to LOX IMVI.
For assay [7], the system named is SF-295.
Assay [8] concerns HCC 2998.
Assay [9] has as its system RXF 393.
Assay [10] deals with HOP-92.
Assay [11] has as its system SF-268.
Assay [12] concerns UACC-62.
The subject of assay [13] is UO-31.
Assay [14] concerns NCI-H460.
Assay [15] relates to A549.

The values below come from ChEMBL document CHEMBL1201862, “PubChem BioAssay data set” (2004).

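Protocol summary: plate cells (96-well), add compound at 5 concentrations, incubate 48 h, interpolate endpoints linearly. GI50 = concentration required for 50% inhibition of growth.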 Active and inactive are the calls of the source. Rule as the data show it: active = GI50 up to about 1.1 µM and inactive = higher.

As to `COC(=O)C1=C(C(=O)OC)C2C=CC1C1C(Cl)=C(Cl)C21` (stereo unspecified), the GI50 in [1] was > 100 µM (inactive); in [2], > 10 µM (inactive); in assay [3], 88.7 µM (inactive); in assay [4] it was > 100 µM (inactive); in assay [5], > 100 µM (inactive); in [6] it was > 100 µM (inactive). Also, the GI50 in assay [7] was > 100 µM (inactive); in [8], > 100 µM (inactive); in [9], > 100 µM (inactive); in assay [10], 40.1 µM (inactive); in [11], > 100 µM (inactive); in assay [12], > 100 µM (inactive). In addition, the GI50 in assay [13], in assay [14] and in [15] was > 100 µM (inactive) each time.

For `CCCCCCCCCCCCCCCCCC(=O)NCC(COP(=O)([O-])OCC[N+](C)(C)C)OC` (stereo unspecified), the GI50 in assay [1] is 15.2 µM (inactive); in assay [2], 1.16 µM (inactive); in assay [3], 15.2 µM (inactive); in assay [4], 1.48 µM (inactive); in assay [5] it was 4.09 µM (inactive); in assay [6], 10.6 µM (inactive). The GI50 in assay [7] is 3.46 µM (inactive); in assay [8] it was 1.05 µM (active); in assay [9], 0.652 µM (active); in assay [10] it was 2.64 µM (inactive); in [11], 5.2 µM (inactive); in [12] it was 4.53 µM (inactive). For the same molecule, the GI50 is 16.9 µM (inactive) in assay [13], 1.27 µM (inactive) in assay [14] and 10.3 µM (inactive) in assay [15].

`CC1=C(/C(C)=N/NC(=O)C(N)=O)Sc2ccccc2N1`: the GI50 in assay [1], in assay [2], in assay [3], in assay [4], in assay [5] and in [6] was > 100 µM (inactive) throughout. In addition, the GI50 in assay [7] was > 100 µM (inactive); in [8], > 100 µM (inactive); in assay [9] it was > 100 µM (inactive); in assay [10], 95.1 µM (inactive); in assay [11], > 100 µM (inactive); in assay [12], > 100 µM (inactive). For the same molecule, the GI50 in assay [13], in assay [14] and in assay [15] was > 100 µM (inactive) throughout.

Take `CSC(=S)N/N=C/c1nccc2ccccc12`: the GI50 was 6.79 µM (inactive) in assay [1]; 0.372 µM (active) in [2]; 1.08 µM (active) in assay [3]; 0.138 µM (active) in assay [4]; 2.74 µM (inactive) in [5]; 1.49 µM (inactive) in assay [6]. Also, the GI50 in [7] was 1.48 µM (inactive); in assay [8], 1.3 µM (inactive); in assay [9], 0.721 µM (active); in [10], 1.37 µM (inactive); in assay [11], 1.04 µM (active); in assay [12], 1.29 µM (inactive). Also, the GI50 in [13] is 1.94 µM (inactive); in assay [14], 1.09 µM (active); in [15], 1.65 µM (inactive).

`CC1(C)OC(=O)C(=C2CC(c3ccccc3)c3ccccc32)C(=O)O1` (stereo unspecified): the GI50 in assay [1], in assay [2], in assay [3], in [4], in [5] and in assay [6] was > 100 µM (inactive) in each case. In addition, the GI50 in assay [7], in assay [8], in [9], in assay [10], in assay [11] and in assay [13] was > 100 µM (inactive) in each case. The GI50 in assay [14] and in assay [15] was > 100 µM (inactive) throughout.

Turning to `CC(C)N1CC2CC(CN(C(=O)c3ccccc3)C2)C1.[O-][Cl+3]([O-])([O-])O`, the GI50 in [1], in assay [2], in assay [3], in assay [4], in assay [5] and in assay [6] was > 100 µM (inactive) throughout. For the same molecule, the GI50 in [7], in assay [8], in assay [9], in [10], in assay [11] and in [12] was > 100 µM (inactive) in each case. Also, the GI50 in assay [13], in assay [14] and in [15] was > 100 µM (inactive) each time.

Regarding `CC1=C(C(=O)Nc2cc(F)c(F)cc2F)C(c2ccc3c(c2)OCO3)C(C(=O)Nc2cc(F)c(F)cc2F)=C(C)N1`, the GI50 in [1] is 19.4 µM (inactive); in [2], 13.8 µM (inactive); in assay [3], 19.4 µM (inactive); in [4], 21.8 µM (inactive); in assay [5], 19.9 µM (inactive); in assay [6], 14.4 µM (inactive). In addition, the GI50 in assay [7] is 21.9 µM (inactive); in [8], 19.2 µM (inactive); in assay [9], 11.5 µM (inactive); in [10] it was 2.72 µM (inactive); in assay [11] it was 23.3 µM (inactive); in [13], 12.9 µM (inactive). Moreover, the figures for the GI50 in assay [14] and in assay [15] were 25.2 µM (inactive) and 22.6 µM (inactive), respectively.

Take `COc1cc2cc(OC)c3cc4c(cc3c2c(OC)c1OC)OCO4`: the GI50 in [1] is > 64.9 µM (inactive); in [2], 15.3 µM (inactive); in assay [3] it was 23.4 µM (inactive); in assay [4] it was 19.6 µM (inactive); in assay [5], 25.2 µM (inactive); in assay [6] it was 15.5 µM (inactive). For the same molecule, the GI50 is 28.1 µM (inactive) in assay [7]; 11 µM (inactive) in assay [8]; 42.9 µM (inactive) in [9]; > 46 µM (inactive) in assay [10]; > 51.1 µM (inactive) in assay [11]; 19.3 µM (inactive) in [12]. For the same molecule, the figures for the GI50 in [13], in assay [14] and in assay [15] were 29.4 µM (inactive), 17.6 µM (inactive) and 44.6 µM (inactive), respectively.

As to `O=C(c1ccc(Cl)cc1)c1ccc(OCCCCCCCCCCOc2ccc(C(=O)c3ccc(Cl)cc3)cc2)cc1`, the GI50 in [1], in [2], in assay [3], in [4], in assay [5] and in [6] was > 100 µM (inactive) each time. Also, the GI50 in assay [7], in [8], in assay [9], in assay [10], in assay [11] and in [12] was > 100 µM (inactive) throughout. The GI50 in [13], in [14] and in assay [15] was > 100 µM (inactive) in each case.

For the molecule `O=C(/C=C/c1ccc(Br)cc1)c1ccc(NCc2nc3ccccc3[nH]2)cc1`, the GI50 in assay [1] is 28.4 µM (inactive); in assay [2], 5.86 µM (inactive); in assay [3] it was 4.4 µM (inactive); in [4], 2.53 µM (inactive); in assay [5], > 59.8 µM (inactive); in assay [6] it was 2.11 µM (inactive). For the same molecule, the GI50 in assay [7] is 4.61 µM (inactive); in assay [8], 6.56 µM (inactive); in assay [9], 4.35 µM (inactive); in assay [10] it was 4 µM (inactive); in assay [11] it was 8.18 µM (inactive); in assay [12], 7.1 µM (inactive). In addition, the GI50 in assay [13] is 7.73 µM (inactive); in assay [14], 8.22 µM (inactive); in assay [15], 5.77 µM (inactive).

In the case of `CCCC(O)[C@@H](O)c1ccc2c(c1O)C(=O)c1c(OC)cccc1C2=O` (stereo partly specified), the GI50 in assay [1] is 24.1 µM (inactive); in [2], 18.4 µM (inactive); in assay [3], 16.8 µM (inactive); in [4], 20.9 µM (inactive); in [5], 54.7 µM (inactive); in assay [6], 27.4 µM (inactive). Also, the GI50 in [7] is 33 µM (inactive); in assay [8] it was 19.4 µM (inactive); in assay [10] it was 58.2 µM (inactive); in assay [11] it was 57.7 µM (inactive); in [12], 25.9 µM (inactive); in assay [13] it was 28.2 µM (inactive). For the same molecule, the GI50 in [14] was 29 µM (inactive); in assay [15] it was 44 µM (inactive).

Consider `Cn1c2ccccc2c2[nH]cc3nc4ccccc4c-3c21`, for which the GI50 in assay [1] was 24.3 µM (inactive); in assay [2], 20.6 µM (inactive); in assay [3], 18.1 µM (inactive); in assay [4] it was 16.9 µM (inactive); in [5], 19.2 µM (inactive); in [6], 21.3 µM (inactive). The GI50 in assay [7] was 22.1 µM (inactive); in assay [8] it was > 100 µM (inactive); in assay [9] it was 16.1 µM (inactive); in assay [10], 27.2 µM (inactive); in assay [11], 22.8 µM (inactive); in assay [12], 18.5 µM (inactive). Moreover, the GI50 is 13 µM (inactive) in assay [13], 15.5 µM (inactive) in assay [14] and 22.6 µM (inactive) in [15].

With `O=C(CCC(=O)Nc1cccc(C(F)(F)F)c1)CC(=O)c1ccc2ccccc2c1`, the GI50 in assay [1], in assay [2], in [3], in assay [4], in assay [5] and in [6] was > 100 µM (inactive) in each case. In addition, the GI50 in assay [7], in assay [8], in assay [10], in assay [11], in [12] and in assay [13] was > 100 µM (inactive) each time. The GI50 in assay [14] and in [15] was > 100 µM (inactive) throughout.
